From ChEMBL document CHEMBL6182926, “Design, Synthesis, and Biological Activity Evaluation of Deuterated Diphenyl Azole Alcohol-Based CYP51 Inhibitors” (J Med Chem, 2025)
In brackets after ≈: the same amount, converted by molar mass.

Experiments:
Cryptococcus neoformans [1] = assay: Antifungal activity against Cryptococcus neoformans CGMCC 2.3161 assessed as reduction in Eburicol at 0.0125 ug/ml measured after 18 hrs incubation by gas chromatography-mass spectrometry (GCMS) analysis; format: functional; parameters: scale not given: the % may be the effect or the level left; settings: dose 0.0125 µg/ml
[2] = AUC (0 to infinity) in Sprague-Dawley rat at 3 mg/kg, iv by LC-MS/MS analysis; format: ADME, organism-based; settings: in vivo
Cryptococcus neoformans [3] = assay: Antifungal activity against Cryptococcus neoformans CGMCC 2.3161 assessed as reduction in 14alpha-methylsterols at 0.125 ug/ml measured after 18 hrs incubation by gas chromatography-mass spectrometry (GCMS) analysis (reference value: 2.32%); format: functional; parameters: scale not given: the % may be the effect or the level left; settings: dose 0.125 µg/ml
Candida albicans [4] = assay: Antifungal activity against Candida albicans SC 5314 assessed as inhibition of visible growth; format: functional
[5] = AUC (0 to infinity) in Sprague-Dawley rat at 10 mg/kg, po by LC-MS/MS analysis; format: ADME, organism-based; settings: in vivo
Cryptococcus neoformans [6] = assay: Antifungal activity against Cryptococcus neoformans CGMCC 2.3161 assessed as reduction in 14alpha-methylsterols at 0.0125 ug/ml measured after 18 hrs incubation by gas chromatography-mass spectrometry (GCMS) analysis (reference value: 2.32%); format: functional; parameters: scale not given: the % may be the effect or the level left; settings: dose 0.0125 µg/ml
[7] = Toxicity in ICR mouse assessed as structural alteration in kidney at 500 mg/kg, po single dose measured for 7 days by hematoxylin-eosin (H/E) staining analysis; format: organism-based; settings: in vivo, 168 h, time 7 day
[8] = Half life in Sprague-Dawley rat at 10 mg/kg, po by LC-MS/MS analysis; format: ADME, organism-based; settings: in vivo
[9] = Toxicity in ICR mouse assessed as structural alteration in liver at 500 mg/kg, po single dose measured for 7 days by hematoxylin-eosin (H/E) staining analysis; format: organism-based; settings: in vivo, 168 h, time 7 day
[10] = Tmax in Sprague-Dawley rat at 3 mg/kg, iv by LC-MS/MS analysis; format: ADME, organism-based; settings: in vivo
[11] = MRT (0 to infinity) in Sprague-Dawley rat at 3 mg/kg, iv by LC-MS/MS analysis; format: ADME, organism-based; settings: in vivo
[12] = Tmax in Sprague-Dawley rat at 10 mg/kg, po by LC-MS/MS analysis; format: ADME, organism-based; settings: in vivo
Pichia kudriavzevii = assay: Fungicidal index, ratio of MFC for fungicidal activity against Candida krusei AS 2.1045 to MIC80 for antifungal activity against Candida krusei AS 2.1045; format: functional
Cytochrome P450 1A2 = target: T1, Cytochrome P450 1A2 (Homo sapiens, UniProt P05177); assay: Inhibition of CYP1A2 in human liver microsomes using phenacetin as substrate measured after 10 mins by LC/MS/MS analysis; format: ADME, Microsome
T1 sequence (P05177 whole entry): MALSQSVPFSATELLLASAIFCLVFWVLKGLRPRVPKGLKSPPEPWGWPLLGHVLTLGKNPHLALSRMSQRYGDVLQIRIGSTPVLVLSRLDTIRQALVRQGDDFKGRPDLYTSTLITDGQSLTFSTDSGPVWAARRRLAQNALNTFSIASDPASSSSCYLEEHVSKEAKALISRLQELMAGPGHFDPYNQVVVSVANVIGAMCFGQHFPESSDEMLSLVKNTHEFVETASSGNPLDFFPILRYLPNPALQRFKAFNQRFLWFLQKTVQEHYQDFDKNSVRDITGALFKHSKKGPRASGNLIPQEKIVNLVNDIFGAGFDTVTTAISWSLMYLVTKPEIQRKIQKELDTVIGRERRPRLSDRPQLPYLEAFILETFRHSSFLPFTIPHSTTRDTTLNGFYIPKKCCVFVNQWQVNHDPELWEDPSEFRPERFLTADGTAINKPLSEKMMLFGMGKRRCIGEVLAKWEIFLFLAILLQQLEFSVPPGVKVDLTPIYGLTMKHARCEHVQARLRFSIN

[13] = Half life in Sprague-Dawley rat at 3 mg/kg, iv by LC-MS/MS analysis; format: ADME, organism-based; settings: in vivo
Cytochrome P450 2C19 = Cytochrome P450 2C19 (Homo sapiens, UniProt P33261); assay: Inhibition of CYP2C19 in human liver microsomes using S-mephenytoin as substrate measured after 10 mins by LC/MS/MS analysis; format: ADME, Microsome
Chain of Cytochrome P450 2C19 (P33261 whole entry): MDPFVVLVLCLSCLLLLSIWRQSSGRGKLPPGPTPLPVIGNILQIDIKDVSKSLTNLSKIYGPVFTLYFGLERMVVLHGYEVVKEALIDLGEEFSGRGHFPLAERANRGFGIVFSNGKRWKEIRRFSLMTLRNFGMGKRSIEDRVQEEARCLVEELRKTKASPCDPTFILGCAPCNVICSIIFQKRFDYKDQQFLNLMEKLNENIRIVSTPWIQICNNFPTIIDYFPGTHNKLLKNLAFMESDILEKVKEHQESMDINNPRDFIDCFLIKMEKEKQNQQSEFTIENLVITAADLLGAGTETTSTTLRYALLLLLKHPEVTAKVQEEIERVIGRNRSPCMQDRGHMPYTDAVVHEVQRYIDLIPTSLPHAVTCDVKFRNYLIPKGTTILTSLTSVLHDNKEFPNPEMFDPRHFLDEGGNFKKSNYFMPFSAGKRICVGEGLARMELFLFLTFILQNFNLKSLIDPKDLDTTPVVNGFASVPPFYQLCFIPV

[14] = (§1) Selectivity ratio, ratio of IC50 for cytotoxicity against human SH-SY5Y cells to MIC80 for antifungal activity against Candida albicans SC 5314; format: toxicity, cell-based
Candida parapsilosis = assay: Antifungal activity against Candida parapsilosis GIM 2.190 assessed as inhibition of visible growth; format: functional; settings: Lodderomyces parapsilosis
[15] = (§2) Selectivity ratio, ratio of IC50 for cytotoxicity against human SH-SY5Y cells to MIC80 for antifungal activity against Clinical isolate Candida glabrata; format: toxicity, cell-based
[16] = Subacute toxicity in ICR mouse assessed as structural alteration in liver at 100 mg/kg, oral gavage for 14 consecutive days by hematoxylin-eosin (H/E) staining analysis; format: organism-based; settings: in vivo, 336 h, time 14 day
[17] = as §1; format: toxicity, cell-based; remark: listed apart in the source
Cryptococcus neoformans [18] = assay: Antifungal activity against Cryptococcus neoformans CGMCC 2.3161 assessed as reduction in other sterol at 0.125 ug/ml measured after 18 hrs incubation by gas chromatography-mass spectrometry (GCMS) analysis (reference value: 2.20%); format: functional; parameters: scale not given: the % may be the effect or the level left; settings: dose 0.125 µg/ml
Cryptococcus neoformans [19] = assay: Fungicidal index, ratio of MFC for fungicidal activity against Cryptococcus neoformans CGMCC 2.3161 to MIC80 for antifungal activity against Cryptococcus neoformans CGMCC 2.3161; format: functional
Cryptococcus neoformans [20] = assay: Inhibition of biofilm formation in Cryptococcus neoformans CGMCC 2.3161 assessed as inhibition of metabolic activity of biofilm measured after 24 hrs by XTT assay; format: functional
[21] = Cmax in Sprague-Dawley rat at 3 mg/kg, iv by LC-MS/MS analysis; format: ADME, organism-based; settings: in vivo
Nakaseomyces glabratus = assay: Fungicidal index, ratio of MFC for fungicidal activity against Clinical isolate Candida glabrata to MIC80 for antifungal activity against Clinical isolate Candida glabrata; format: functional
[22] = Subacute toxicity in ICR mouse assessed as mortality at 100 mg/kg, oral gavage for 14 consecutive days; format: organism-based; settings: in vivo, 336 h, time 14 day
[23] = as §2; format: toxicity, cell-based; remark: listed apart in the source
Cytochrome P450 3A4 = Cytochrome P450 3A4 (Homo sapiens, UniProt P08684); assay: Inhibition of CYP3A4 in human liver microsomes using testosterone as substrate measured after 10 mins by LC/MS/MS analysis; format: ADME, Microsome
Chain of Cytochrome P450 3A4 (P08684 whole entry): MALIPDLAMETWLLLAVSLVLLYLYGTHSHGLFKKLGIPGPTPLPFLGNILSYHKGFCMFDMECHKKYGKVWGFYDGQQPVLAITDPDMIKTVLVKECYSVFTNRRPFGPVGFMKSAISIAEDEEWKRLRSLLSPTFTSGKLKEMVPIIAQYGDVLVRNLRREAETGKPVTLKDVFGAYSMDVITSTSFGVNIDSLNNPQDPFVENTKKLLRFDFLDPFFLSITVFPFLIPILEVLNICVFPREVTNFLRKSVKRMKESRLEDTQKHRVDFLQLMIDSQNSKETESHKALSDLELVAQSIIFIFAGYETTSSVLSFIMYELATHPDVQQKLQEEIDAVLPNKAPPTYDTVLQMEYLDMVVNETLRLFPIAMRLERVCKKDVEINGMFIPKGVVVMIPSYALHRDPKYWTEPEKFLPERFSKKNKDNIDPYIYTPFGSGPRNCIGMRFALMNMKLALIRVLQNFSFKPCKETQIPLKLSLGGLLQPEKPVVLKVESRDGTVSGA

Candida albicans [24] = assay: Antifungal activity against Candida albicans CPCC 400616 assessed as inhibition of visible growth; format: functional
[25] = Cmax in Sprague-Dawley rat at 10 mg/kg, po by LC-MS/MS analysis; format: ADME, organism-based; settings: in vivo
[26] = Subacute toxicity in ICR mouse assessed as structural alteration in kidney at 100 mg/kg, oral gavage for 14 consecutive days by hematoxylin-eosin (H/E) staining analysis; format: organism-based; settings: in vivo, 336 h, time 14 day
[27] = Cytotoxicity against human SH-SY5Y cells measured after 72 hrs by MTT assay; format: toxicity, cell-based
Cytochrome P450 2D6 = Cytochrome P450 2D6 (Homo sapiens, UniProt P10635); assay: Inhibition of CYP2D6 in human liver microsomes using dextromethorphan as substrate measured after 10 mins by LC/MS/MS analysis; format: ADME, Microsome
Chain of Cytochrome P450 2D6 (P10635 whole entry): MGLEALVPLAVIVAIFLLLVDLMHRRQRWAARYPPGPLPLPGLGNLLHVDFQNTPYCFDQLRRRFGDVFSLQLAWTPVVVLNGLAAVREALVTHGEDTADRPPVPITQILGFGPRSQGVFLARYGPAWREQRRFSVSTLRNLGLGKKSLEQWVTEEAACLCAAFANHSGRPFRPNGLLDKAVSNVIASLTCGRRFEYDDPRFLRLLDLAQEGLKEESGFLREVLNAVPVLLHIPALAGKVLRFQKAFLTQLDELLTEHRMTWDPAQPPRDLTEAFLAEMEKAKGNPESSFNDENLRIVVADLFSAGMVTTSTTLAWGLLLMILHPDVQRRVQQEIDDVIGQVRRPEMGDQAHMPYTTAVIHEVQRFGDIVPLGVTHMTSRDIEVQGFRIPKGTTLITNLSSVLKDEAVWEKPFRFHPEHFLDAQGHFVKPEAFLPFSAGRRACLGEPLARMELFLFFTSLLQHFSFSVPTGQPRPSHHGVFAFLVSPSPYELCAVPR

[2H]C([2H])([2H])N(Cc1ccc(-c2ccc(OC(F)(F)F)cc2)cc1)[C@H](C)[C@](O)(Cn1cncn1)c1ccc(F)cc1F
Activity (Cryptococcus neoformans [1]): 11.59%
AUC [2]: 2286 ng·h/mL
Activity (Cryptococcus neoformans [3]): 3.21%
MIC80 (Candida albicans [4]): 6 ng/mL (≈ 0.0112 µM)
AUC(0-inf) [5]: 4830 ng·h/mL
Activity (Cryptococcus neoformans [6]): 3.13%
Activity [7]: Non-toxic
half-life [8]: 4.42 h
Activity [9]: Non-toxic
Tmax [10]: 4.98 min
MRT inf [11]: 2.32 h
Tmax [12]: 2.67 h
Activity_index (Pichia kudriavzevii): 10
IC50 (Cytochrome P450 1A2): > 10 µM
t1/2 [13]: 6.79 h
IC50 (Cytochrome P450 2C19): 1.71 µM
selectivity ratio [14]: > 100
MIC80 (Candida parapsilosis): 6 ng/mL (≈ 0.0112 µM)
selectivity ratio [15]: > 100
Activity [16]: Non-toxic
selectivity ratio [17]: > 100
Activity (Cryptococcus neoformans [18]): 11.5%
Activity_index (Cryptococcus neoformans [19]): 5
MIC50 (Cryptococcus neoformans [20]): 16000 ng/mL (≈ 29.9 µM)
Cmax [21]: 2290 ng/mL
Activity_index (Nakaseomyces glabratus): 40
Activity [22]: Non-toxic
selectivity ratio [23]: > 100
IC50 (Cytochrome P450 3A4): 5.11 µM
MIC80 (Candida albicans [24]): 6 ng/mL (≈ 0.0112 µM)
Cmax [25]: 601 ng/mL
Activity [26]: Non-toxic
IC50 at 72 h [27]: 25.2 µM
IC50 (Cytochrome P450 2D6): > 10 µM
